Results as given in US10377791B2, “Therapeutically active estratrienthiazole derivatives as inhibitors of 17 B-hydroxysteroid dehydrogenase, type 1” (FORENDO PHARMA LTD, priority 2013, dated 2019).
Values joined by “and” are separate entries in the source; they are usually repeats but may differ in a detail not shown here. Identical values can stand only once. Counter-ions that a name gives are not always drawn. Like-named read-outs stand apart in the source and are kept apart here.

Experiments:
[1] = target: T1, recombinant human 17β-HSD1 (Homo sapiens, UniProt P14061); assay: Inhibition of recombinant human 17β-HSD1; type: biochemical; details: for inhibition at 1 µM: read-out: 17β-HDS1 Inhibition % at 1 μM
T1 construct: made in house; host or cells: Sd9 (Sf9) insect cells, baculovirus (Bac to Bac Expression System)
T1 sequence (P14061 1-328): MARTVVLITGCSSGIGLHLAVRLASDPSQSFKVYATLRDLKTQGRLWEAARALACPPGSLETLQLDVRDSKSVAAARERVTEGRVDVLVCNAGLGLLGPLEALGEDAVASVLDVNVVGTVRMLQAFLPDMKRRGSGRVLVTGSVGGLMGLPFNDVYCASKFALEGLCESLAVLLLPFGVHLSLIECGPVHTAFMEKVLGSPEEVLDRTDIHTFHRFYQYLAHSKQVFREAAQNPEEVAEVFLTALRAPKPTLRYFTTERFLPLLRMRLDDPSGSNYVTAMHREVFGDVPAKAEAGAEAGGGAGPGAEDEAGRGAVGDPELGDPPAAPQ
Method: Recombinant baculovirus was generated by the “Bac to Bac Expression System” (Invitrogen). Recombinant bacmid was transfected to Sd9 insect cells using “Cellfectin Reagent” (Invitrogen). 60 h later cells were harvested; the microsomal fraction was isolated as described by Puranen, T. J., Poutanen, M. H., Peltoketo, H. E., Vihko, P. T. and Vihko, R. K. (1994) Site-directed mutagenesis of the putative active site of human 17 β-hydroxysteroid dehydrogenase type 1. Biochem. J. 304: 289-293. Aliquots were stored frozen until determination of enzymatic activity.
Recombinant protein (1 μg/ml) was incubated in 20 mM KH2PO4 pH 7.4 with 30 nM estrone (including 800 000 cpm/ml of ^3H-estrone) and 1 mM NADPH for 30 min at RT, in the presence of the potential inhibitor at concentrations 1 μM or 0.1 μM. Inhibitor stock solutions were prepared in DMSO. Final concentration of DMSO was adjusted to 1% in all samples. The enzyme reaction was stopped by addition of 10% trichloroacetic acid (final concentration). Samples were centrifuged in a microtiter plate at 4000 rpm for 10 min. Supernatants were applied to reverse phase HPLC on a Waters Symmetry C18 column, equipped with a Waters Sentry Guard column. Isocratic HPLC runs were performed at RT at a flow rate of 1 ml/min in acetonitrile:water 48:52 as running solvent. Radioactivity was monitored in the eluate by a Packard Flow Scintillation Analyzer. Total radioactivity for estrone and estradiol were determined in each sample and percent conversion of estrone to estradiol was calculated according to the following formula:
(§1) [formula] Percent inhibition was calculated flowingly: % inhibition=100−% conversion

[2] = target: T2, recombinant human 17β-HSD2 (Homo sapiens, UniProt P37059); assay: Inhibition of recombinant human 17β-HSD2; type: biochemical; details: for inhibition at 1 µM: read-out: 17β-HSD2 Inhibition % at 1 μM
T2 construct: made in house; host or cells: Sd9 (Sf9) insect cells, baculovirus (Bac to Bac Expression System)
T2 sequence (P37059 1-387): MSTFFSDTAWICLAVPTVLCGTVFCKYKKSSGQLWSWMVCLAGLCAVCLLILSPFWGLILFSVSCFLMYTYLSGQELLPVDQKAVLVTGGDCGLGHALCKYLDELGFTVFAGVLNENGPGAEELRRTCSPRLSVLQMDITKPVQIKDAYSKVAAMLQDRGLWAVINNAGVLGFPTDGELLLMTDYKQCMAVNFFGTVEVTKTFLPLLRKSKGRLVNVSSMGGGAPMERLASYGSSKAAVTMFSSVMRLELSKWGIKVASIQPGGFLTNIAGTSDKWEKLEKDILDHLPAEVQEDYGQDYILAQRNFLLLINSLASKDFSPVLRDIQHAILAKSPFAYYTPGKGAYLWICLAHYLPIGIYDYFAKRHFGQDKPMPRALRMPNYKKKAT
Method: Similarly to 17β-HSD1 the Recombinant baculovirus was generated by the “Bac to Bac Expression System” (Invitrogen). Recombinant bacmid was transfected to Sd9 insect cells using “Cellfectin Reagent” (Invitrogen). 60 h later cells were harvested and supernatant were fractionated by the following protocol: • cells were dissolved into 40 ml of A-buffer (40 mM TRIS, pH8.0, 20% glycerol, 20 μM NAD, 0.4 mM PMSF, 150 mM NaCl, 0.5% dodecyl-β-maltoside+protease inhibitor cocktail) • cells were sonicated • lysate was incubated on ice for 15 min • lysate was centrifuged 5000 rpm 15 min, +4° C. • centrifugation of the supernatant 180 000 g 30 min, +4° C. • pellet was dissolved into 8 ml of A-buffer • not resuspended material was removed by centrifugation 5000 rpm 15 min, +4° C. • the clear supernatant was divided into 100 μl aliquots and were stored frozen until determination of enzymatic activity.
The amount of 17β-HSD2 was analysed by immunoblotting and total protein concentration of each extract batch was determined.
Recombinant protein (4 μg/ml) was incubated in 20 mM KH2PO4 pH 8.5 with 50 nM estradiol (including 800 000 cpm/ml of ^3H-estradiol) and 1 mM NADH for 30 min at RT, in the presence of the potential inhibitor at concentrations 1 μM or 0.1 μM. Inhibitor stock solutions were prepared in DMSO. Final concentration of DMSO was adjusted to 1% in all samples. The enzyme reaction was stopped by addition of 10% trichloroacetic acid (final concentration). Samples were centrifuged in a microtiter plate at 4000 rpm for 10 min. Supernatants were applied to reverse phase HPLC on a Waters Symmetry C18 column, equipped with a Waters Sentry Guard column. Isocratic HPLC runs were performed at RT at a flow rate of 1 ml/min in acetonitrile:water 48:52 as running solvent. Radioactivity was monitored in the eluate by a Packard Flow Scintillation Analyzer. Total radioactivity for estrone and estradiol were determined in each sample and percent conversion of estradiol to estrone was calculated according to the following formula:
as §1

[3] = inhibitor at 1 μM, 30 nM estrone, 1 mM NADPH, 30 min at RT
[4] = inhibitor at 1 μM, 50 nM estradiol, 1 mM NADH, 30 min at RT

Compound	inhibition at 1 µM [1, 3] [%]	inhibition at 1 µM [2, 4] [%]	also measured
CC(=O)Oc1ccc2c(c1)CCC1C2CC[C@]2(C)C(=O)C[C@@H](CCC(=O)Nc3ncc(C)s3)C12 (stereo partly drawn) [Compound 1, Acetic acid (13S,15R)-13-methyl-15-[2-(5-methylthiazol-2-ylcarbamoyl)-ethyl]-17-oxo-7,8,9,11,12,13,14,15,16,17-decahydro-6H-cyclopenta[a]phenanthren-3-yl ester]	92	13	–
Cc1cnc(NC(=O)CC[C@@H]2CC(=O)[C@@]3(C)CCC4c5ccc(OS(N)(=O)=O)cc5CCC4C23)s1 (stereo partly drawn) [Compound 4, Sulphamic acid (13S,15R)-13-methyl-15-[2-(5-methylthiazol-2-ylcarbamoyl)-ethyl]-17-oxo-7,8,9,11,12,13,14,15,16,17-decahydro-6H-cyclopenta[a]phenanthren-3-yl ester]	82	3	–
Cc1cnc(NC(=O)CC[C@@H]2CC(=O)[C@@]3(C)CCC4c5ccc(OP(=O)(O)O)cc5CCC4C23)s1 (stereo partly drawn) [Compound 7, Phosphoric acid mono-{(13S,15R)-13-methyl-15-[2-(5-methylthiazol-2-ylcarbamoyl)-ethyl]-17-oxo-7,8,9,11,12,13,14,15,16,17-decahydro-6H-cyclopenta[a]phenanthren-3-yl} ester]	80	–	17β-HSD2 Inhibition % at 1 μM [2, 4]: 3%
Cc1cnc(NC(=O)CC[C@@H]2CC(=O)[C@@]3(C)CCC4c5ccc(OP(=O)([O-])[O-])cc5CCC4C23)s1.[Na+].[Na+] (stereo partly drawn) [Compound 8, Phosphoric acid mono-{(13S,15R)-13-methyl-15-[2-(5-methylthiazol-2-ylcarbamoyl)-ethyl]-17-oxo-7,8,9,11,12,13,14,15,16,17-decahydro-6H-cyclopenta[a]phenanthren-3-yl} ester disodium salt]	–	–	17β-HDS1 Inhibition % at 1 μM [1, 3]: 81%; 17β-HSD2 Inhibition % at 1 μM [2, 4]: 0%
Cc1cnc(NC(=O)CC[C@@H]2CC(=O)[C@@]3(C)CCC4c5ccc(OC(=O)CCC(=O)O)cc5CCC4C23)s1 (stereo partly drawn) [Compound 10, Succinic acid mono-{(13S,15R)-13-methyl-15-[2-(5-methylthiazol-2-ylcarbamoyl)-ethyl]-17-oxo-7,8,9,11,12,13,14,15,16,17-decahydro-6H-cyclopenta[a]phenanthren-3-yl} ester sodium salt]	98	1	–
CC(=O)NCC(=O)Oc1ccc2c(c1)CCC1C2CC[C@]2(C)C(=O)C[C@@H](CCC(=O)Nc3ncc(C)s3)C12 (stereo partly drawn) [Compound 11, Acetylamino-acetic acid (13S,15R)-13-methyl-15-[2-(5-methylthiazol-2-ylcarbamoyl)-ethyl]-17-oxo-7,8,9,11,12,13,14,15,16,17-decahydro-6H-cyclopenta[a]phenanthren-3-yl ester]	87	–	17β-HDS1 Inhibition % at 1 μM [1, 3]: 88%; 17β-HSD2 Inhibition % at 1 μM [2, 4]: 0% and 2%
Cc1cnc(NC(=O)CC[C@@H]2CC(=O)[C@@]3(C)CCC4c5ccc(OC(=O)CNC(=O)OC(C)(C)C)cc5CCC4C23)s1 (stereo partly drawn) [Compound 15, tert-Butoxycarbonylamino-acetic acid (13S,15R)-13-methyl-15-[2-(5-methylthiazol-2-ylcarbamoyl)-ethyl]-17-oxo-7,8,9,11,12,13,14,15,16,17-decahydro-6H-cyclopenta[a]phenanthren-3-yl ester]	66	0	–
Cc1cnc(NC(=O)CC[C@@H]2CC(=O)[C@@]3(C)CCC4c5ccc(OC(=O)CN)cc5CCC4C23)s1 (stereo partly drawn) [Compound 16, Amino-acetic acid (13S,15R)-13-methyl-15-[2-(5-methylthiazol-2-ylcarbamoyl)-ethyl]-17-oxo-7,8,9,11,12,13,14,15,16,17-decahydro-6H-cyclopenta[a]phenanthren-3-yl ester]	93	0	–
CC(=O)Oc1ccccc1C(=O)Oc1ccc2c(c1)CCC1C2CC[C@]2(C)C(=O)C[C@@H](CCC(=O)Nc3ncc(C)s3)C12 (stereo partly drawn) [Compound 19, 2-Acetoxy-benzoic acid (13S,15R)-13-methyl-15-[2-(5-methylthiazol-2-ylcarbamoyl)-ethyl]-17-oxo-7,8,9,11,12,13,14,15,16,17-decahydro-6H-cyclopenta[a]phenanthren-3-yl ester]	58	0	–
CCOC(=O)Oc1ccc2c(c1)CCC1C2CC[C@]2(C)C(=O)C[C@@H](CCC(=O)Nc3ncc(C)s3)C12 (stereo partly drawn) [Compound 20, Ethyl ((13S,15R)-13-methyl-15-(3-((5-methylthiazol-2-yl)amino)-3-oxopropyl)-17-oxo-7,8,9,11,12,13,14,15,16,17-decahydro-6H-cyclopenta[a]phenanthren-3-yl) carbonate]	52	0	–
Cc1cnc(NC(=O)CC[C@@H]2CC(=O)[C@@]3(C)CCC4c5ccc(OS(=O)(=O)N(C)C)cc5CCC4C23)s1 (stereo partly drawn) [Compound 23, Dimethyl-sulphamic acid (13S,15R)-13-methyl-15-[2-(5-methylthiazol-2-ylcarbamoyl)-ethyl]-17-oxo-7,8,9,11,12,13,14,15,16,17-decahydro-6H-cyclopenta[a]phenanthren-3-yl ester]	74	6	–
Cc1cnc(NC(=O)CC[C@@H]2CC(=O)[C@@]3(C)CCC4c5ccc(OC(=O)N(C)C)cc5CCC4C23)s1 (stereo partly drawn) [Compound 25, Dimethyl-carbamic acid (13S,15R)-13-methyl-15-[2-(5-methylthiazol-2-ylcarbamoyl)-ethyl]-17-oxo-7,8,9,11,12,13,14,15,16,17-decahydro-6H-cyclopenta[a]phenanthren-3-yl ester]	–	–	inhibition at 1 µM [1]: 52%; inhibition at 1 µM [2]: 6%
Cc1cnc(NC(=O)CC[C@@H]2CC(=O)[C@@]3(C)CCC4c5ccc(OC(=O)CN(C)C)cc5CCC4C23)s1 (stereo partly drawn) [Compound 26, Dimethylamino-acetic acid (13S,15R)-13-methyl-15-[2-(5-methylthiazol-2-ylcarbamoyl)-ethyl]-17-oxo-7,8,9,11,12,13,14,15,16,17-decahydro-6H-cyclopenta[a]phenanthren-3-yl ester]	96	6	–
